Among the data in patent US9340819B2, “Method for detecting the presence of carbapenemase-producing bacteria in a sample” (priority 2011, dated 2016) are MIC and MICs range values, retold here.

Values after ≈ are worked out from the molar mass of the structure shown.

One assay concerns P. putida. Kind of assay: Susceptibility testing by Etest on Mueller-Hinton agar (Example 3). The class given is cell-based. The settings on record: Pseudomonas putida. As for the experimental part: (§1) Susceptibility testing was performed using the Etest® (bioMérieux; La Balmes-les-Grottes, France) on Mueller-Hinton agar plates (Becton Dickinson, Le Pont de Chaix, France) at 37° C. and results were recorded according to US guidelines (CLSI), as updated in 2012. The breakpoints for imipenem, meropenem and doripenem are as follows; susceptibility (S)≦2, and resistance (R)≧8 μg/ml.

In the next assay the test system is P. stutzeri. The assay is described as above. In kind it is cell-based. The settings on record: Stutzerimonas stutzeri. As for the experimental part:
as §1

The subject of another assay is P. fluorescens. The description is as above. In kind it is cell-based. The settings on record: Pseudomonas fluorescens. On the procedure:
as §1

The subject of a further assay is K. pneumoniae. Kind of assay: MIC of carbapenem by Etest (Example 2). The class given is cell-based, Klebsiella pneumoniae. On the procedure:
(§2) All strains had previously been characterized for their β-lactamase content at the molecular level. Minimum inhibitory concentration of carbapenem were determined using the Etest® (AB bioMérieux, Solna, Sweden) and results were recorded according to US guidelines (CLSI), as updated in 2011.

A further assay concerns K. ozonae. Kind of assay: MIC of carbapenem by Etest (Example 2). The class given is cell-based. The settings on record: K. ozonae KPC-3, n=1. As for the experimental part: as §2
A further assay relates to E. sakazaki. Kind of assay: MIC of carbapenem by Etest (Example 2). The class given is cell-based. The settings on record: ESBL + decreased membrane permeability; E. sakazaki CTX-M-15, n=1. As for the experimental part:
as §2

A further assay concerns Salmonella spp. Kind of assay: MIC of carbapenem by Etest (Example 2). The class given is cell-based. Particulars: Salmonella spp. KPC-2, n=1. As for the experimental part: as §2
Where [1] appears, read: ESBL + decreased membrane permeability, K. pneumoniae SHV-2a, n=1.
Setting [2] is: ESBL + decreased membrane permeability, K. pneumoniae SHV-28, n=1.
Setting [3] is: ESBLs, K. pneumoniae CTX-M-3, n=1.
Where [4] appears, read: ESBLs, K. pneumoniae CTX-M-14, n=1.
[5] abbreviates: ESBLs, K. pneumoniae CTX-M-15, n=3.
The mark [6] stands for this setting: Plasmid mediated AmpC or chromosomal AmpC + decreased membrane permeability, K. pneumoniae DHA-1, n=1.
The mark [7] stands for this setting: Plasmid mediated AmpC or chromosomal AmpC + decreased membrane permeability, K. pneumoniae DHA-2, n=1.

As a reminder, the MIC is the least concentration at which growth counts as inhibited. High values mean a less susceptible organism, low ones a more susceptible organism. As to `C[C@@H](O)[C@H]1C(=O)N2C(C(=O)O)=C(SCCN=CN)C[C@H]12` [IMP, imipenem], the MIC in the assay on P. putida (CIP55, P. putida CIP 55-5, wild type, none) is 0.0005 µg/mL (≈ 0.00167 µM); with P. putida (P. putida 9335, VIM-2), above 0.032 µg/mL; in the assay with P. putida (P. putida NTU 91/99, VIM-2), above 0.032 µg/mL; against P. putida (P. putida NTU 92/99, IMP-1), 0.001 µg/mL (≈ 0.00334 µM); against P. stutzeri (P. stutzeri 13, DIM-1), above 0.032 µg/mL; against P. stutzeri (P. stutzeri P511503100, VIM-2) it was above 0.032 µg/mL. Also, the MIC against P. stutzeri (P. stutzeri PB207, IMP-1) was 0.002 µg/mL (≈ 0.00668 µM); against P. fluorescens (P. fluorescens COU, VIM-2), above 0.032 µg/mL; in the assay with P. fluorescens (P. fluorescens, BIC-1) it was above 0.032 µg/mL. Also, the MICs range was 0.25 to 8 mg/L in the assay with K. pneumoniae (ESBL + decreased membrane permeability, K. pneumoniae CTX-M-15, n=8); 0.25 mg/L in the assay on K. pneumoniae (setting [1]); 1 mg/L with K. pneumoniae (setting [2]); 0.12 mg/L in the assay with K. pneumoniae (setting [3]); 0.12 mg/L in the assay on K. pneumoniae (setting [4]); 0.12 mg/L in the assay with K. pneumoniae (setting [5]). Further, the MICs range with K. pneumoniae (K. pneumoniae IMP-1, n=5) was 0.5 to 8 mg/L; in the assay on K. pneumoniae (K. pneumoniae IMP-8, n=2), 0.5 to 1 mg/L; in the assay with K. pneumoniae (K. pneumoniae KPC-3, n=3), 0.5 to 8 mg/L; in the assay with K. pneumoniae (K. pneumoniae NDM-4, n=1), above 32 mg/L; in the assay with K. pneumoniae (K. pneumoniae OXA-181, n=2) it was 0.5 to 1 mg/L; with K. pneumoniae (K. pneumoniae VIM-19, n=1), 8 mg/L. The MICs range in the assay on K. pneumoniae (setting [6]) was above 32 mg/L; in the assay with K. pneumoniae (setting [7]), 0.12 mg/L; with K. ozonae, above 32 mg/L; in the assay with E. sakazaki, 0.25 mg/L; with Salmonella spp. it was 4 mg/L.

With `C[C@@H](O)[C@H]1C(=O)N2C(C(=O)O)=C(S[C@@H]3CN[C@H](C(=O)Nc4cccc(C(=O)O)c4)C3)[C@H](C)[C@H]12` [ERT, ertapenem], the MICs range with K. pneumoniae (setting [1]) is reported as 2 mg/L; in the assay with K. pneumoniae (setting [2]), 4 mg/L; with K. pneumoniae (setting [3]) it was 0.12 mg/L; in the assay on K. pneumoniae (setting [4]) it was 0.12 mg/L; in the assay on K. pneumoniae (setting [5]), 0.12 mg/L; in the assay with K. pneumoniae (K. pneumoniae IMP-1, n=5), 2 to 4 mg/L. Moreover, the MICs range in the assay on K. pneumoniae (K. pneumoniae IMP-8, n=2) was 0.5 to 1^ mg/L; in the assay with K. pneumoniae (K. pneumoniae NDM-4, n=1), above 32 mg/L; in the assay on K. pneumoniae (K. pneumoniae OXA-181, n=2) it was 2 to 4 mg/L; with K. pneumoniae (K. pneumoniae VIM-19, n=1) it was 16 mg/L; in the assay on K. pneumoniae (setting [6]), above 32 mg/L; in the assay with K. pneumoniae (setting [7]) it was 0.5 mg/L. Further, the MICs range is above 32 mg/L with K. ozonae, 1.5 mg/L in the assay on E. sakazaki and 1 mg/L in the assay with Salmonella spp..
